Like-named read-outs stand apart in the source and are kept apart here.
What was measured:
[1] = Exposure after repeat oral administration in GLP toxicology study, dogs; format: in vivo
From the text: There were no marked sex-based differences in exposure, but in the 28-day toxicity study of compound (1-g) in rats, exposures were 1.4 to 1.9-fold higher in female rats compared to males.

CYP2C8 = target: T1, CYP2C8 (Homo sapiens, UniProt P10632); experiment: CYP2C8 direct inhibition; format: in vitro ADME; conditions: highest concentration evaluated (10 μM)
T1 sequence (P10632 1-490): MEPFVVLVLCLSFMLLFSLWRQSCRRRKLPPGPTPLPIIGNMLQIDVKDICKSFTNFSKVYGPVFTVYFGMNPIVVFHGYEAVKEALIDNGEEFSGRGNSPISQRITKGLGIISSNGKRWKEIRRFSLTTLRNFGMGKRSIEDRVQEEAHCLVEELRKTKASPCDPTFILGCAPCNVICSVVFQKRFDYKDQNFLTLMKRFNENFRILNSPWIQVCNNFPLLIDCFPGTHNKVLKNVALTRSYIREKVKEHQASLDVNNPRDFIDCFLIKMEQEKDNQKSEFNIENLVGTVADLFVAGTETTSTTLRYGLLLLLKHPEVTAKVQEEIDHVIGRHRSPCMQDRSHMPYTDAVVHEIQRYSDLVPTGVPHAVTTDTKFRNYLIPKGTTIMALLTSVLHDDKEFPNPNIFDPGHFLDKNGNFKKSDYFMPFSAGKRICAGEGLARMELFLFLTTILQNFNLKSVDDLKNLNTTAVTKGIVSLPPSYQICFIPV

[2] = Phase 1 study: plasma pharmacokinetics in patients; format: in vivo, human; conditions: for conversion to compound (1-h) in patients: plasma PK after oral dosing
Protocol: All patients received compound (1-g) orally. The time of day for administration of compound (1-g) was consistent. Compound (1-g) was taken whole with liquid(s) and with food in the morning. The patient avoided taking other medications at the same time as compound (1-g). When possible, the patient took other medications in the evening or separated by a minimum of 4 hours following compound (1-g) dosing. On scheduled PK collection days (Cycle 1 Day 1, Cycle 1 Day 15, and Day 1 of Cycles 2, 3, 4, and 6) patients were instructed to wait until they arrive at the study center to take their study drug when told. If a patient missed a dose of compound (1-g), the patient was required to take the dose as soon as possible, but not less than 12 hours before the next dose is due. If vomiting occurred after taking the study treatment, the patient was instructed not to retake the dose and record the dose recorded as taken in the dosing diary, noting that the patient vomited and marking the time of vomiting. Patients were instructed to take the next scheduled dose of compound (1-g).
The plasma PK parameters (including AUC(0-∞), AUC(0-τ), Cmax, tmax, and T1/2) of compound (1-g) following oral administration was assessed by analysis of blood samples. During treatment, PK blood samples were taken at approximately the following time points: • Cycle 1 Day 1, and Day 15: pre-dose; at 1, 2, and 4-hour post-dose (±5 min); 6 and 8-hour post-dose (±10 min); and 24 hours post-dose (+1 hour); • Cycle 2, 3, 4, and 6 Day 1: pre-dose only.
Plasma concentrations of compound (1-g) were used to calculate the PK parameters. These parameters were listed by individual patient and summarized by descriptive statistics (means, medians, ranges, standard deviations, and coefficients of variation as appropriate) by cohort.
Compound (1-g) was administered orally to patients once a day at 100, 200, 300 mg, 400 mg, and 600 mg doses.

in vivo = conditions: female, rat, po

SMILES: O=C1CC[C@H](N2Cc3cc(N4CCN(CC5CCN(c6ccc([C@@H]7c8ccc(O)cc8OC[C@@H]7c7ccccc7)cc6F)CC5)CC4)ccc3C2=O)C(=O)N1 [compound (1-g), (S)-3-(5-(4-((1-(2-fluoro-4-((3S,4R)-7-hydroxy-3-phenylchroman-4-yl)phenyl)piperidin-4-yl)methyl)piperazin-1-yl)-1-oxoisoindolin-2-yl)piperidine-2,6-dione]
- accumulation with repeated dosing [1]: No significant accumulation
- change of exposure following repeat dosing ([1]; 45 mg/kg/day): decreased in females and slightly decreased in males
- dose proportionality of exposure ([1]; 5 to 45 mg/kg/day, repeat administration): slightly less than dose proportional
- exposure (AUC0-24h) versus dose ([1]; repeat oral administration): increased in an approximately dose-dependent manner
- CYP2C8 direct inhibition (CYP2C8): did not directly inhibit
- Tmax ([2]; human, plasma, po, 100 mg, patient plasma, oral (1-g) 100 mg QD, C1D1, n = 3, *median value, read-out: Tmax*): 12.7 h
- AUC(0-t) ([2]; human, plasma, po, 100 mg, patient plasma, oral (1-g) 100 mg QD, C1D1, n = 3, mean, read-out: AUC0-24 h): 7570 ng·h/mL
- Cmax ([2]; human, plasma, po, 100 mg, patient plasma, oral (1-g) 100 mg QD, C1D1, n = 3, mean, read-out: Cmax): 432 ng/mL
- half-life ([2]; human, plasma, po, 100 mg, patient plasma, oral (1-g) 100 mg QD, C1D1, n = 3, mean, read-out: T½ (converted)): 20.2 h
- AUC(0-t) ([2]; human, plasma, po, 100 mg, patient plasma, oral (1-g) 100 mg QD, C1D15 (steady state), n = 3, mean, read-out: AUC0-24 h): 19500 ng·h/mL
- Cmax ([2]; human, plasma, po, 100 mg, patient plasma, oral (1-g) 100 mg QD, C1D15 (steady state), n = 3, mean, read-out: Cmax): 1010 ng/mL
- Tmax ([2]; human, plasma, po, 100 mg, patient plasma, oral (1-g) 100 mg QD, C1D15, n = 3, *median value, read-out: Tmax*): 6.67 h
- half-life ([2]; human, plasma, po, 100 mg, patient plasma, oral (1-g) 100 mg QD, C1D15, n = 3, mean, read-out: T½ (converted)): 32.1 h
- Tmax ([2]; human, plasma, po, 200 mg, patient plasma, oral (1-g) 200 mg QD, C1D1, n = 12, *median value, read-out: Tmax*): 5.5 h
- AUC(0-t) ([2]; human, plasma, po, 200 mg, patient plasma, oral (1-g) 200 mg QD, C1D1, n = 12, mean, read-out: AUC0-24 h): 11200 ng·h/mL
- Cmax ([2]; human, plasma, po, 200 mg, patient plasma, oral (1-g) 200 mg QD, C1D1, n = 12, mean, read-out: Cmax): 630 ng/mL
- half-life ([2]; human, plasma, po, 200 mg, patient plasma, oral (1-g) 200 mg QD, C1D1, n = 12, mean, read-out: T½ (converted)): 38.3 h
- AUC(0-t) ([2]; human, plasma, po, 200 mg, patient plasma, oral (1-g) 200 mg QD, C1D15 (steady state), n = 12, mean, read-out: AUC0-24 h): 26000 ng·h/mL
- Cmax ([2]; human, plasma, po, 200 mg, patient plasma, oral (1-g) 200 mg QD, C1D15 (steady state), n = 12, mean, read-out: Cmax): 1340 ng/mL
- Tmax ([2]; human, plasma, po, 200 mg, patient plasma, oral (1-g) 200 mg QD, C1D15, n = 12, *median value, read-out: Tmax*): 4 h
- half-life ([2]; human, plasma, po, 200 mg, patient plasma, oral (1-g) 200 mg QD, C1D15, n = 12, mean, read-out: T½ (converted)): 48.8 h
- Tmax ([2]; human, plasma, po, 300 mg, patient plasma, oral (1-g) 300 mg QD, C1D1, n = 10, *median value, read-out: Tmax*): 5.8 h
- AUC(0-t) ([2]; human, plasma, po, 300 mg, patient plasma, oral (1-g) 300 mg QD, C1D1, n = 10, mean, read-out: AUC0-24 h): 16600 ng·h/mL
- Cmax ([2]; human, plasma, po, 300 mg, patient plasma, oral (1-g) 300 mg QD, C1D1, n = 10, mean, read-out: Cmax): 963 ng/mL
- half-life ([2]; human, plasma, po, 300 mg, patient plasma, oral (1-g) 300 mg QD, C1D1, n = 10, mean, read-out: T½ (converted)): 31.2 h
- AUC(0-t) ([2]; human, plasma, po, 300 mg, patient plasma, oral (1-g) 300 mg QD, C1D15 (steady state), n = 10, mean, read-out: AUC0-24 h): 41800 ng·h/mL
- Cmax ([2]; human, plasma, po, 300 mg, patient plasma, oral (1-g) 300 mg QD, C1D15 (steady state), n = 10, mean, read-out: Cmax): 2190 ng/mL
- Tmax ([2]; human, plasma, po, 300 mg, patient plasma, oral (1-g) 300 mg QD, C1D15, n = 10, *median value, read-out: Tmax*): 4.8 h
- half-life ([2]; human, plasma, po, 300 mg, patient plasma, oral (1-g) 300 mg QD, C1D15, n = 10, mean, read-out: T½ (converted)): 32.9 h
- Tmax ([2]; human, plasma, po, 400 mg, patient plasma, oral (1-g) 400 mg QD, C1D1, n = 6, *median value, read-out: Tmax*): 6 h
- AUC(0-t) ([2]; human, plasma, po, 400 mg, patient plasma, oral (1-g) 400 mg QD, C1D1, n = 6, mean, read-out: AUC0-24 h): 18800 ng·h/mL
- Cmax ([2]; human, plasma, po, 400 mg, patient plasma, oral (1-g) 400 mg QD, C1D1, n = 6, mean, read-out: Cmax): 1070 ng/mL
- half-life ([2]; human, plasma, po, 400 mg, patient plasma, oral (1-g) 400 mg QD, C1D1, n = 6, mean, read-out: T½ (converted)): 30.4 h
- Tmax ([2]; human, plasma, po, 400 mg, patient plasma, oral (1-g) 400 mg QD, C1D15, n = 5, *median value, read-out: Tmax*): 4.4 h
- AUC(0-t) ([2]; human, plasma, po, 400 mg, patient plasma, oral (1-g) 400 mg QD, C1D15, n = 5, mean, read-out: AUC0-24 h): 45900 ng·h/mL
- Cmax ([2]; human, plasma, po, 400 mg, patient plasma, oral (1-g) 400 mg QD, C1D15, n = 5, mean, read-out: Cmax): 2360 ng/mL
- half-life ([2]; human, plasma, po, 400 mg, patient plasma, oral (1-g) 400 mg QD, C1D15, n = 5, mean, read-out: T½ (converted)): 44.9 h
- Tmax ([2]; human, plasma, po, 600 mg, patient plasma, oral (1-g) 600 mg QD, C1D1, n = 4, *median value, read-out: Tmax*): 4.5 h
- AUC(0-t) ([2]; human, plasma, po, 600 mg, patient plasma, oral (1-g) 600 mg QD, C1D1, n = 4, mean, read-out: AUC0-24 h): 26100 ng·h/mL
- Cmax ([2]; human, plasma, po, 600 mg, patient plasma, oral (1-g) 600 mg QD, C1D1, n = 4, mean, read-out: Cmax): 1390 ng/mL
- half-life ([2]; human, plasma, po, 600 mg, patient plasma, oral (1-g) 600 mg QD, C1D1, n = 4, mean, read-out: T½ (converted)): 40.9 h
- Tmax ([2]; human, plasma, po, 600 mg, patient plasma, oral (1-g) 600 mg QD, C1D15, n = 4, *median value, read-out: Tmax*): 6 h
- AUC(0-t) ([2]; human, plasma, po, 600 mg, patient plasma, oral (1-g) 600 mg QD, C1D15, n = 4, mean, read-out: AUC0-24 h): 48600 ng·h/mL
- Cmax ([2]; human, plasma, po, 600 mg, patient plasma, oral (1-g) 600 mg QD, C1D15, n = 4, mean, read-out: Cmax): 2680 ng/mL
- half-life ([2]; human, plasma, po, 600 mg, patient plasma, oral (1-g) 600 mg QD, C1D15, n = 4, mean, read-out: T½ (converted)): 27.6 h
- AUC(0-t) ([2]; human, plasma, po, patients, 100-600 mg QD oral, read-out: AUC0-24h, range): 7570 to 48600 ng·h/mL
- Cmax ([2]; human, plasma, po, patients, 100-600 mg QD oral, read-out: Cmax, range): 432 to 2680 ng/mL
- half-life ([2]; human, plasma, po, patients, 100-600 mg QD oral, read-out: mean effective T1/2 at steady state, range): 20.2 to 48.8 h
- Tmax ([2]; human, plasma, po, patients, 100-600 mg QD oral, read-out: median Tmax, range across the dose levels): 4 to 13 h
- Cmax ([2]; patient plasma, oral (1-g) 100 mg QD, C1D15 (steady state), n = 3, mean): 1008.67 ng/mL
- Cmax ([2]; patient plasma, oral (1-g) 200 mg QD, C1D15 (steady state), n = 12, mean): 1341.75 ng/mL
- dose proportionality of pharmacokinetics ([2]; patients, FIGS. 4A, 4C, 4D): dose proportional relationship up to 400 mg but almost plateaued at 400 mg
- Cmax and AUC0-24h versus dose ([2]; patients, preliminary results): dose-dependent increases
- conversion to compound (1-h) in patients [2]: partially converted to compound (1-h)
- conversion to compound (1-h) in patients ([2]; listed as 1-g): partially metabolized to form compound 1-h
- CYP3A time-dependent inhibition (CYP3A): weak time-dependent inhibition
- AUC (in vivo; AUC in the evaluated tissues (compared with plasma)): > 2800 ng·h/mL
- AUC (in vivo; plasma AUC): 2800 ng·h/mL
